Ten compounds from patent US20260184710A1, “CASITAS B-LINEAGE LYMPHOMA PROTOONCOGENE B (CBL-B) DEGRADING COMPOUNDS AND ASSOCIATED METHODS OF USE” (Arvinas Operations, Inc., priority 2022, published 2026) can be followed below.

For the assay, the target named is T1, Cbl-b (Homo sapiens, UniProt Q13191).
T1 construct: Cbl-b-HiBit KI Jurkat Cells were purchased from Promega; host or cells: Cbl-b-HiBiT knock-in Jurkat cells
Put plainly: Cbl-b Degradation Method B (Nano-Glo HiBiT lytic detection). Type of assay: cell-based. The following applies: Cbl-b-HiBit KI Jurkat Cells, incubated at least 6-24 hours; for DC50: half maximal degradation, read-out: Cbl-b Degredation Method B IC50; for Dmax: maximum degradation observed, read-out: Cbl-b Degredation Method B Dmax (%). The method in brief: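 An 11-point, 3-fold compound dilution was applied for 6-24 hours to Jurkat cells carrying HiBiT-tagged endogenous Cbl-b. Lytic HiBiT luminescence quantified residual protein. Outputs are DC50 and Dmax relative to DMSO control.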
(The HiBiT peptide binds its large partner to form an active luciferase.)

T1 sequence (Q13191 whole entry): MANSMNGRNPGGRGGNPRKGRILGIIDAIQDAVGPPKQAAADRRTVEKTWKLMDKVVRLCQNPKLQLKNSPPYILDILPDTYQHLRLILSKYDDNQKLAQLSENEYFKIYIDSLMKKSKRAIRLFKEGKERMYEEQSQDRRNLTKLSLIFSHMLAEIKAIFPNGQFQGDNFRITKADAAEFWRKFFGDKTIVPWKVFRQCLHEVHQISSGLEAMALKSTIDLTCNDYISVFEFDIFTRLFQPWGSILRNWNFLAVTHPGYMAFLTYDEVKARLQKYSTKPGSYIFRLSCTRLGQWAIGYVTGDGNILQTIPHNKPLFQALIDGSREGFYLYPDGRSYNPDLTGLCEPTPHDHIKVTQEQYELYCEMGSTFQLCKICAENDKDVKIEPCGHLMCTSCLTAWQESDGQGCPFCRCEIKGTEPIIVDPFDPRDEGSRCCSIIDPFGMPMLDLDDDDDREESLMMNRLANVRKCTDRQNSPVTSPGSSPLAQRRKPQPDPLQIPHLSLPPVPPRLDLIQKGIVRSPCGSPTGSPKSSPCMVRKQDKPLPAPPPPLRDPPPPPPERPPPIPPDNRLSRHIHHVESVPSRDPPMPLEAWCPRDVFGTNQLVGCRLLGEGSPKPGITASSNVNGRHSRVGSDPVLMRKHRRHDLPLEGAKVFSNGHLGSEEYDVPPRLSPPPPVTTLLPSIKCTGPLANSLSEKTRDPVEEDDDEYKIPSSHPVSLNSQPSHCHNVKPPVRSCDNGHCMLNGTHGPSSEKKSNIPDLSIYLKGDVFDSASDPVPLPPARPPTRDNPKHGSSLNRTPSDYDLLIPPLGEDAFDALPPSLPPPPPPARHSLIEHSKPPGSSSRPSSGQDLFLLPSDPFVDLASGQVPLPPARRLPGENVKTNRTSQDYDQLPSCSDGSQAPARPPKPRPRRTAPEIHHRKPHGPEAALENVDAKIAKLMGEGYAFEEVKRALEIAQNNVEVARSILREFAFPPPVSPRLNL

In the case of `Cn1cnnc1CC1(c2cccc(N3Cc4c(cc(CN5CCC(COCC6CCN(c7ccc8c(c7)C(=O)N(C7CCC(=O)NC7=O)C8=O)CC6)CC5)cc4C(F)(F)F)C3=O)c2)COC1` (centres unmarked) [Example 40, 2-(2,6-dioxopiperidin-3-yl)-5-(4-{[(1-{[2-(3-{3-[(4-methyl-4H-1,2,4-triazol-3-yl)methyl]oxetan-3-yl}phenyl)-3-oxo-7-(trifluoromethyl)-2,3-dihydro-1H-isoindol-5-yl]methyl}piperidin-4-yl)methoxy]methyl}piperidin-1-yl)-2,3-dihydro-1H-isoindole-1,3-dione], the DC50 is > 500 nM.
Turning to `O=C1CCC(N2Cc3c(ccc(N4CCC(O[C@H]5CC[C@H](CN6CCN(Cc7cc8c(c(C(F)(F)F)c7)CN(c7cccc(C9(Cc%10nnc[nH]%10)COC9)c7)C8=O)CC6)CC5)CC4)c3F)C2=O)C(=O)N1` (some centres unmarked) [Example 197, 3-[4-fluoro-1-oxo-5-(4-{[(1r,4r)-4-[(4-{[3-oxo-2-(3-{3-[(4H-1,2,4-triazol-3-yl)methyl]oxetan-3-yl}phenyl)-7-(trifluoromethyl)-2,3-dihydro-1H-isoindol-5-yl]methyl}piperazin-1-yl)methyl]cyclohexyl]oxy}piperidin-1-yl)-2,3-dihydro-1H-isoindol-2-yl]piperidine-2,6-dione], the DC50 was > 500 nM.
For the compound `CC(C)n1c(=O)n(C2CCC(=O)NC2=O)c2ccc(N3CCC(O[C@H]4CC[C@@H](CN5CCN(C[C@H]6CCCN(Cc7cc8c(c(C(F)(F)F)c7)CN(c7cccc(C9(Cc%10nncn%10C)COC9)c7)C8=O)C6)C(C)(C)C5)CC4)CC3)cc21` (stereo partly drawn) [Example 263, 3-[2-oxo-3-(propan-2-yl)-5-(4-{[(1r,4r)-4-[(3,3-dimethyl-4-{[(3S)-1-{[2-(3-{3-[(4-methyl-4H-1,2,4-triazol-3-yl)methyl]oxetan-3-yl}phenyl)-3-oxo-7-(trifluoromethyl)-2,3-dihydro-1H-isoindol-5-yl]methyl}piperidin-3-yl]methyl}piperazin-1-yl)methyl]cyclohexyl]oxy}piperidin-1-yl)-2,3-dihydro-1H-1,3-benzodiazol-1-yl]piperidine-2,6-dione], the DC50 was < 5 nM and the Dmax was > 70%.
As for `Cn1cnnc1CC1(c2cccc(N3Cc4c(cc(CN5CCC(CCC6CCN(c7ccc8c(c7)C(=O)N(C7CCC(=O)NC7=O)C8=O)CC6)CC5)cc4C(F)(F)F)C3=O)c2)COC1` (centres unmarked) [Example 71, 2-(2,6-dioxopiperidin-3-yl)-5-{4-[2-(1-{[2-(3-{3-[(4-methyl-4H-1,2,4-triazol-3-yl)methyl]oxetan-3-yl}phenyl)-3-oxo-7-(trifluoromethyl)-2,3-dihydro-1H-isoindol-5-yl]methyl}piperidin-4-yl)ethyl]piperidin-1-yl}-2,3-dihydro-1H-isoindole-1,3-dione], the DC50 is > 500 nM.
In the case of `CC1c2nc(N3CCC(O[C@H]4CC[C@H](CN5CCN(Cc6cc(C(F)(F)F)c7cn(-c8cccc(C9(Cc%10nncn%10C)CC(C#N)C9)c8)nc7c6)C(C)(C)C5)CC4)CC3)ccc2C(=O)N1C1CCC(=O)NC1=O` (some centres unmarked) [Example 252, (1r**,3r**)-3-(3-{6-[(2,2-dimethyl-4-{[(1r*,4r*)-4-({1-[6-(2,6-dioxopiperidin-3-yl)-7-methyl-5-oxo-5H,6H,7H-pyrrolo[3,4-b]pyridin-2-yl]piperidin-4-yl}oxy)cyclohexyl]methyl}piperazin-1-yl)methyl]-4-(trifluoromethyl)-2H-indazol-2-yl}phenyl)-3-[(4-methyl-4H-1,2,4-triazol-3-yl)methyl]cyclobutane-1-carbonitrile], the DC50 is 5 to 50 nM and the Dmax is 35 to 70%.
As to `Cn1cnnc1CC1(c2cccc(N3Cc4c(cc(CN5CCC(CN6CCC7(CC6)CN(c6cccc8c6CN(C6CCC(=O)NC6=O)C8=O)C7)CC5)cc4C(F)(F)F)C3=O)c2)COC1` (centres unmarked) [Example 65, 3-(4-{7-[(1-{[2-(3-{3-[(4-methyl-4H-1,2,4-triazol-3-yl)methyl]oxetan-3-yl}phenyl)-3-oxo-7-(trifluoromethyl)-2,3-dihydro-1H-isoindol-5-yl]methyl}piperidin-4-yl)methyl]-2,7-diazaspiro[3.5]nonan-2-yl}-1-oxo-2,3-dihydro-1H-isoindol-2-yl)piperidine-2,6-dione], the DC50 is > 500 nM.
On to `Cc1cc(N2C[C@H]3C[C@@H]2CN3CC2CCC3(CC2)CN(c2cc4c(c(C(F)(F)F)c2)CN(c2cccc([C@]5(Cc6nncn6C)C[C@@H](C#N)C5)c2)C4=O)C3)c(F)c2c1C(=O)N(C1CCC(=O)NC1=O)C2` (stereo partly drawn) [Example 150, 3-[3-[6-[7-[[(1R,4R)-5-[2-(2,6-dioxo-3-piperidyl)-4-fluoro-7-methyl-1-oxo-isoindolin-5-yl]-2,5-diazabicyclo [2.2.1]heptan-2-yl]methyl]-2-azaspiro [3.5]nonan-2-yl]-1-oxo-4-(trifluoromethyl)isoindolin-2-yl]phenyl]-3-[(4-methyl-1,2,4-triazol-3-yl)methyl]cyclobutanecarbonitrile], for which the DC50 was > 500 nM.
As to `Cn1cnnc1CC1(c2cccc(-n3cc4c(C(F)(F)F)cc(CN5CCC[C@H](CN6CCC[C@H](CN7CCN(c8ccc9c(c8F)CN(C8CCC(=O)NC8=O)C9=O)CC7)C6)C5)cc4n3)c2)COC1` (stereo partly drawn) [Example 155, 3-[4-fluoro-5-[4-[[(3S)-1-[[(3R)-1-[[2-[3-[3-[(4-methyl-1,2,4-triazol-3-yl)methyl]oxetan-3-yl]phenyl]-4-(trifluoromethyl)indazol-6-yl]methyl]-3-piperidyl]methyl]-3-piperidyl]methyl]piperazin-1-yl]-1-oxo-isoindolin-2-yl]piperidine-2,6-dione], the DC50 is > 500 nM.
As to `CC(C)n1c(=O)n(C2CCC(=O)NC2=O)c2ccc(N3CCC(O[C@H]4CC[C@H](CN5CCN(Cc6cc7c(c(C(F)(F)F)c6)CN(c6cccc([C@]8(Cc9nncn9C)C[C@@H](C#N)C8)c6)C7=O)C(C)(C)C5)CC4)CC3)cc21` (some centres unmarked) [Example 229, (1r,3r)-3-(3-{6-[(2,2-dimethyl-4-{[(1r,4r)-4-({1-[1-(2,6-dioxopiperidin-3-yl)-2-oxo-3-(propan-2-yl)-2,3-dihydro-1H-1,3-benzodiazol-5-yl]piperidin-4-yl}oxy)cyclohexyl]methyl}piperazin-1-yl)methyl]-1-oxo-4-(trifluoromethyl)-2,3-dihydro-1H-isoindol-2-yl}phenyl)-3-[(4-methyl-4H-1,2,4-triazol-3-yl)methyl]cyclobutane-1-carbonitrile], the DC50 is < 5 nM and the Dmax is > 70%.
Take `CC1c2nc(N3CCC(O[C@H]4CC[C@H](CN5C[C@@H]6C[C@H]5CN6c5cc6c(c(C(F)(F)F)c5)CN(c5cccc([C@]7(Cc8nncn8C)C[C@H](C#N)C7)c5)C6=O)CC4)CC3)ccc2C(=O)N1C1CCC(=O)NC1=O` (stereo partly drawn) [Example 182, (1r,3r)-3-[(4-methyl-4H-1,2,4-triazol-3-yl)methyl]-3-(3-{1-oxo-6-[(1S,4S)-5-{[(1r,4r)-4-({1-[6-(2,6-dioxopiperidin-3-yl)-7-methyl-5-oxo-5H,6H,7H-pyrrolo[3,4-b]pyridin-2-yl]piperidin-4-yl}oxy)cyclohexyl]methyl}-2,5-diazabicyclo[2.2.1]heptan-2-yl]-4-(trifluoromethyl)-2,3-dihydro-1H-isoindol-2-yl}phenyl)cyclobutane-1-carbonitrile]: the DC50 fell in the range of 5 to 50 nM and the Dmax is < 35%.

The Dmax is the largest share of the target that was removed.
